# Data from article PMC3561959 (Nucleic Acids Research, 2012).
# Experiments:
# [1] = target: DBD-F^MBP (Homo sapiens, UniProt P27694); assay type: binding; settings: competitive titration, fluorescence anisotropy
# [2] = target: RPA (Homo sapiens, UniProt P27694); test: Helix destabilization assay; assay type: biochemical; settings: EMSA, dsDNA probe, 200 µM of each compound
# RPA, sequence (P27694 whole entry): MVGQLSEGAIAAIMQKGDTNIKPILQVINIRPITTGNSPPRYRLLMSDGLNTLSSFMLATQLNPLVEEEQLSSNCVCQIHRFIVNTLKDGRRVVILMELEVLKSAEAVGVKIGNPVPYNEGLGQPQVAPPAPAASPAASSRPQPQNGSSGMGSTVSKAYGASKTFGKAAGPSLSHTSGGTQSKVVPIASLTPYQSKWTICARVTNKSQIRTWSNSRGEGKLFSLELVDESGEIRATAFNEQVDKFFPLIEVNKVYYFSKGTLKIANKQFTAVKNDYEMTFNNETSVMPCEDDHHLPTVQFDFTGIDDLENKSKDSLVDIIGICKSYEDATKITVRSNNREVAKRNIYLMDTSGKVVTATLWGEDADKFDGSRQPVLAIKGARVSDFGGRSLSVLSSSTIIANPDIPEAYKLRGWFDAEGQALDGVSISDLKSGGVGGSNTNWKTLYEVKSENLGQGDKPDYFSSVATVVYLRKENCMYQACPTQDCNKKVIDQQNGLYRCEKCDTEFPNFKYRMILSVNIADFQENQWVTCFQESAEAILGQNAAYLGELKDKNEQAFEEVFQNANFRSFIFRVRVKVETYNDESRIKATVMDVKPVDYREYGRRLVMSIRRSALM
# RPA, sequence (P15927 whole entry partner): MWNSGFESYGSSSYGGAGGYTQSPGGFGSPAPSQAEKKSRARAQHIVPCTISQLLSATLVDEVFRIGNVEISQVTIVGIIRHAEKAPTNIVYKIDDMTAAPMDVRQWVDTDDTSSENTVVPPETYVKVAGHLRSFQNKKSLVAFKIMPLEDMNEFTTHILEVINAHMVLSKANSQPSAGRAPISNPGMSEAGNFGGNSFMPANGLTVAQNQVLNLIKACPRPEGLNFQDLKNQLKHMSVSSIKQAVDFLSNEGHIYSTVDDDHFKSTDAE
# RPA, sequence (P35244 whole entry partner): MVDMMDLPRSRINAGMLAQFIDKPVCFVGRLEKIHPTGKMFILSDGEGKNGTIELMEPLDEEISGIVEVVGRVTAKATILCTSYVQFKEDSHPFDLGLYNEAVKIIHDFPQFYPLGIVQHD
# DBD-F^MBP, sequence (P27694 1-168): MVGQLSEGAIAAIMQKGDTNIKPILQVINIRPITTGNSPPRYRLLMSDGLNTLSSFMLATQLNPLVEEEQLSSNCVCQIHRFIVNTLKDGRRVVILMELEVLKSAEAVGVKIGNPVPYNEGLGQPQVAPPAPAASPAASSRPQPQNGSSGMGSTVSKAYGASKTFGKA
competition with X-rhodamine-labelled p53TAD2 for binding to DBD-F^MBP [1],inhibition of helix destabilization by RPA [2],SMILES
no evidence of binding,no effect,"O=C(O)C1CCC(C(=O)O)CC1 (stereo not shown) [1,4-cyclohexanedicarboxylic acid]"
no evidence of binding,no effect,O=C(O)CCC(=O)O [succinic acid]
